# Assay results from PubChem BioAssay AID256 (DTP/NCI, 2004).
# Inconclusive results and toxic doses are left out.
# System: CD2F1 mice, L1210 leukemia ip, survival T/C
# Assay: NCI In Vivo Anticancer Drug Screen. Data for tumor model L1210 Leukemia (intraperitoneal) in CD2F1 (CDF1) mice
# Settings: higher = longer survival
# Summary of the method: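 Implant tumor; dose compound or vehicle; measure endpoint in both groups; report treated divided by control.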
# [1] = endpoint: mean survival time, dose: 12.5 mg/kg/injection, schedule: Q04DX003 (ip), vehicle: saline with Tween-80
# [2] = endpoint: mean survival time, dose: 25.0 mg/kg/injection, schedule: Q04DX003 (ip), vehicle: saline with Tween-80
# [3] = endpoint: mean survival time, dose: 50.0 mg/kg/injection, schedule: Q04DX003 (ip), vehicle: saline with Tween-80
# [4] = endpoint: mean survival time, dose: 200.0 mg/kg/injection, schedule: Q04DX003 (ip), vehicle: saline with Tween-80
# [5] = endpoint: mean survival time, dose: 400.0 mg/kg/injection, schedule: Q04DX003 (ip), vehicle: saline with Tween-80
# [6] = endpoint: mean survival time, dose: 50.0 mg/kg/injection, schedule: Q01DX009 (ip), vehicle: Klucel (hydroxypropylcellulose) (HPC)
# [7] = endpoint: mean survival time, dose: 200.0 mg/kg/injection, schedule: Q01DX009 (ip), vehicle: Klucel (hydroxypropylcellulose) (HPC)
# [8] = endpoint: mean survival time, dose: 100.0 mg/kg/injection, schedule: Q04DX002 (ip), vehicle: saline with Tween-80
# [9] = endpoint: mean survival time, dose: 200.0 mg/kg/injection, schedule: Q04DX002 (ip), vehicle: saline with Tween-80
# [10] = endpoint: mean survival time, dose: 400.0 mg/kg/injection, schedule: Q04DX002 (ip), vehicle: saline with Tween-80
# [11] = endpoint: mean survival time, dose: 100.0 mg/kg/injection, schedule: Q01DX009 (ip), vehicle: saline with Tween-80
# [12] = endpoint: mean survival time, dose: 200.0 mg/kg/injection, schedule: Q01DX009 (ip), vehicle: saline with Tween-80
# [13] = endpoint: mean survival time, dose: 100.0 mg/kg/injection, schedule: Q04DX003 (ip), vehicle: saline with Tween-80
# [14] = endpoint: mean survival time, dose: 400.0 mg/kg/injection, schedule: Q01DX009 (ip), vehicle: saline with Tween-80
structure (smiles),measurement,setting,value
COc1cc(C=Nc2cc(Cl)ccc2-n2ccnc2C)ccc1N(CCCl)CCCl,T/C,[1],117 % of control
same,T/C,[2],113 % of control
same,T/C,[3],118 % of control
same,T/C,[4],115 % of control
same,T/C,[5],89 % of control
O=C(c1cccnc1)n1cc2c(n1)C1=C(CCCC1)CC2,T/C,[6],90 % of control
same,T/C,"endpoint: mean survival time, dose: 100.0 mg/kg/injection, schedule: Q01DX009 (ip), vehicle: Klucel (hydroxypropylcellulose) (HPC)",105 % of control
same,T/C,[7],102 % of control
COc1ccc(/C=N/N=C/c2ccc(OC)cc2)cc1,T/C,"endpoint: mean survival time, dose: 100.0 mg/kg/injection, schedule: Q04DX003 (ip), vehicle: Klucel (hydroxypropylcellulose) (HPC)",104 % of control
same,T/C,"endpoint: mean survival time, dose: 200.0 mg/kg/injection, schedule: Q04DX003 (ip), vehicle: Klucel (hydroxypropylcellulose) (HPC)",100 % of control
same,T/C,"endpoint: mean survival time, dose: 400.0 mg/kg/injection, schedule: Q04DX003 (ip), vehicle: Klucel (hydroxypropylcellulose) (HPC)",114 % of control
CN1C(=O)C(C(O)(c2ccccc2)c2ccccc2)C1c1ccccc1 (stereo not drawn),T/C,"endpoint: mean survival time, dose: 50.0 mg/kg/injection, schedule: Q04DX002 (ip), vehicle: saline with Tween-80",96 % of control
same,T/C,[8],96 % of control
same,T/C,[9],96 % of control
COc1cc2c(cc1O)-c1cc3ccc(OC)c(OC)c3c[n+]1CC2,T/C,"endpoint: mean survival time, dose: 25.0 mg/kg/injection, schedule: Q04DX002 (ip), vehicle: saline",111 % of control
same,T/C,"endpoint: mean survival time, dose: 25.0 mg/kg/injection, schedule: Q04DX003 (ip), vehicle: suspension in saline",94 % of control
same,T/C,"endpoint: mean survival time, dose: 50.0 mg/kg/injection, schedule: Q04DX002 (ip), vehicle: saline",97 % of control
same,T/C,"endpoint: mean survival time, dose: 50.0 mg/kg/injection, schedule: Q04DX003 (ip), vehicle: suspension in saline",90 % of control
same,T/C,"endpoint: mean survival time, dose: 100.0 mg/kg/injection, schedule: Q04DX002 (ip), vehicle: saline",104 % of control
same,T/C,"endpoint: mean survival time, dose: 100.0 mg/kg/injection, schedule: Q04DX003 (ip), vehicle: suspension in saline",102 % of control
same,T/C,"endpoint: mean survival time, dose: 200.0 mg/kg/injection, schedule: Q04DX002 (ip), vehicle: saline",104 % of control
same,T/C,"endpoint: mean survival time, dose: 200.0 mg/kg/injection, schedule: Q04DX003 (ip), vehicle: suspension in saline",109 % of control
Cc1ccc(OC(=O)Nc2cc([N+](=O)[O-])ccc2[N+](=O)[O-])cc1,T/C,[8],100 % of control
same,T/C,[9],100 % of control
same,T/C,[10],92 % of control
O=C1C(Cl)=CC(=NS(=O)(=O)c2ccccc2)C=C1Cl,T/C,"endpoint: mean survival time, dose: 6.25 mg/kg/injection, schedule: Q04DX003 (ip), vehicle: saline with Tween-80",100 % of control
same,T/C,[1],94 % of control
same,T/C,[2],103 % of control
CS(=O)(=O)OCCN(CCOS(C)(=O)=O)c1ccc(N=O)cc1,T/C,"endpoint: mean survival time, dose: 0.25 mg/kg/injection, schedule: Q01DX009 (ip), vehicle: saline",101 % of control
same,T/C,"endpoint: mean survival time, dose: 0.5 mg/kg/injection, schedule: Q01DX001 (ip), vehicle: saline",113 % of control
same,T/C,"endpoint: mean survival time, dose: 0.5 mg/kg/injection, schedule: Q01DX005 (ip), vehicle: saline",103 % of control
same,T/C,"endpoint: mean survival time, dose: 0.5 mg/kg/injection, schedule: Q01DX009 (ip), vehicle: saline",91 % of control
same,T/C,"endpoint: mean survival time, dose: 1.0 mg/kg/injection, schedule: Q01DX005 (ip), vehicle: saline",114 % of control
same,T/C,"endpoint: mean survival time, dose: 1.0 mg/kg/injection, schedule: Q04DX003 (ip), vehicle: saline",97 % of control
same,T/C,"endpoint: mean survival time, dose: 2.0 mg/kg/injection, schedule: Q01DX001 (ip), vehicle: saline",114 % of control
same,T/C,"endpoint: mean survival time, dose: 2.0 mg/kg/injection, schedule: Q04DX003 (ip), vehicle: saline",97 % of control
same,T/C,"endpoint: mean survival time, dose: 7.5 micrograms/kg/injection, schedule: Q03HX024 (ip), vehicle: saline",234 % of control
same,T/C,"endpoint: mean survival time, dose: 31.3 micrograms/kg/injection, schedule: Q03HX024 (ip), vehicle: saline",115 % of control
CC(=O)NCc1cnccn1,T/C,"endpoint: mean survival time, dose: 100.0 mg/kg/injection, schedule: Q04DX003 (ip), vehicle: saline sonified",103 % of control
same,T/C,"endpoint: mean survival time, dose: 200.0 mg/kg/injection, schedule: Q04DX003 (ip), vehicle: saline sonified",102 % of control
same,T/C,"endpoint: mean survival time, dose: 400.0 mg/kg/injection, schedule: Q04DX003 (ip), vehicle: saline sonified",102 % of control
CNC(=S)N(C)c1nc(C)cs1,T/C,[8],91 % of control
same,T/C,[9],95 % of control
same,T/C,[10],103 % of control
COc1ccc(OC)c(NC(=O)Nc2cc(Cl)c(OC)cc2OC)c1,T/C,[11],87 % of control
same,T/C,"endpoint: mean survival time, dose: 178.0 mg/kg/injection, schedule: Q01DX009 (ip), vehicle: saline with Tween-80",97 % of control
same,T/C,[12],103 % of control
same,T/C,"endpoint: mean survival time, dose: 266.0 mg/kg/injection, schedule: Q01DX009 (ip), vehicle: saline with Tween-80",95 % of control
same,T/C,"endpoint: mean survival time, dose: 600.0 mg/kg/injection, schedule: Q01DX009 (ip), vehicle: saline with Tween-80",95 % of control
Cc1ccc(NC(=O)Oc2ccc(Br)cc2Br)c([N+](=O)[O-])c1,T/C,[3],106 % of control
same,T/C,[13],104 % of control
same,T/C,[4],96 % of control
same,T/C,[5],100 % of control
same,T/C,"endpoint: median survival time, dose: 100.0 mg/kg/injection, schedule: Q01DX009 (ip), vehicle: saline with Tween-80",98 % of control
same,T/C,"endpoint: median survival time, dose: 200.0 mg/kg/injection, schedule: Q01DX009 (ip), vehicle: saline with Tween-80",100 % of control
same,T/C,"endpoint: median survival time, dose: 400.0 mg/kg/injection, schedule: Q01DX009 (ip), vehicle: saline with Tween-80",105 % of control
same,T/C,"endpoint: median survival time, dose: 800.0 mg/kg/injection, schedule: Q01DX009 (ip), vehicle: saline with Tween-80",101 % of control
OCc1ccc2[n+](c1)CCc1c-2[nH]c2ccccc12,T/C,"endpoint: mean survival time, dose: 12.5 mg/kg/injection, schedule: Q01DX001 (ip), vehicle: saline with Tween-80",96 % of control
same,T/C,"endpoint: mean survival time, dose: 12.5 mg/kg/injection, schedule: Q01DX009 (ip), vehicle: saline with Tween-80",98 % of control
same,T/C,"endpoint: mean survival time, dose: 25.0 mg/kg/injection, schedule: Q01DX001 (ip), vehicle: saline with Tween-80",101 % of control
same,T/C,"endpoint: mean survival time, dose: 25.0 mg/kg/injection, schedule: Q01DX009 (ip), vehicle: saline with Tween-80",94 % of control
same,T/C,"endpoint: mean survival time, dose: 50.0 mg/kg/injection, schedule: Q01DX001 (ip), vehicle: saline with Tween-80",101 % of control
same,T/C,"endpoint: mean survival time, dose: 50.0 mg/kg/injection, schedule: Q01DX009 (ip), vehicle: saline with Tween-80",100 % of control
OCCNc1ccc(I)cc1,T/C,[13],105 % of control
same,T/C,[4],112 % of control
same,T/C,[5],103 % of control
C1SCc2c1c1c(c3c2CSC3)CSC1,T/C,"endpoint: mean survival time, dose: 100.0 mg/kg/injection, schedule: Q01DX001 (ip), vehicle: saline with Tween-80",87 % of control
same,T/C,"endpoint: mean survival time, dose: 400.0 mg/kg/injection, schedule: Q01DX001 (ip), vehicle: saline with Tween-80",87 % of control
O=S(=O)(c1cccc(N=C=S)c1)c1cccc(N=C=S)c1,T/C,"endpoint: median survival time, dose: 6.25 mg/kg/injection, schedule: Q01DX009 (ip), vehicle: Klucel (hydroxypropylcellulose) (HPC)",101 % of control
same,T/C,"endpoint: median survival time, dose: 12.5 mg/kg/injection, schedule: Q01DX009 (ip), vehicle: Klucel (hydroxypropylcellulose) (HPC)",109 % of control
same,T/C,"endpoint: median survival time, dose: 25.0 mg/kg/injection, schedule: Q01DX009 (ip), vehicle: Klucel (hydroxypropylcellulose) (HPC)",118 % of control
CC(NC=O)c1c[nH]c(=O)[nH]c1=O (stereo not drawn),T/C,[11],100 % of control
same,T/C,[12],97 % of control
same,T/C,[14],97 % of control
c1ccc(CC23CCCCC2N3)cc1 (stereo not drawn),T/C,"endpoint: mean survival time, dose: 100.0 mg/kg/injection, schedule: Q01DX001 (ip), vehicle: saline sonified",96 % of control
same,T/C,"endpoint: mean survival time, dose: 200.0 mg/kg/injection, schedule: Q01DX001 (ip), vehicle: saline sonified",94 % of control
O=C1NC2C=CC3C=CC=CC2C13 (stereo not drawn),T/C,"endpoint: median survival time, dose: 25.0 mg/kg/injection, schedule: Q04DX002 (ip), vehicle: saline with Tween-80",100 % of control
same,T/C,"endpoint: median survival time, dose: 50.0 mg/kg/injection, schedule: Q04DX002 (ip), vehicle: saline with Tween-80",100 % of control
same,T/C,"endpoint: median survival time, dose: 100.0 mg/kg/injection, schedule: Q04DX002 (ip), vehicle: saline with Tween-80",100 % of control
same,T/C,"endpoint: median survival time, dose: 200.0 mg/kg/injection, schedule: Q04DX002 (ip), vehicle: saline with Tween-80",100 % of control
CCN1CCCSC1=S,T/C,"endpoint: mean survival time, dose: 75.0 mg/kg/injection, schedule: Q01DX001 (ip), vehicle: other",98 % of control
same,T/C,"endpoint: mean survival time, dose: 150.0 mg/kg/injection, schedule: Q01DX001 (ip), vehicle: other",103 % of control
CC(=O)Nc1cccc(N=NN(C)C)c1,T/C,"endpoint: mean survival time, dose: 12.5 mg/kg/injection, schedule: Q01DX009 (ip), vehicle: Klucel (hydroxypropylcellulose) (HPC)",113 % of control
same,T/C,[6],151 % of control
same,T/C,[7],87 % of control
O=C1c2ccccc2C(=O)N1CCCl,T/C,[11],91 % of control
same,T/C,[12],91 % of control
same,T/C,[14],92 % of control
